Columns and labels:
DmAChE = target: T1, DmAChE (Drosophila melanogaster, UniProt P07140); experiment: Ellman assay, […] nm; global fit of hydrolysis inhibition and carbamoylation; format: biochemical; details: read-out: DmAChE (ATCh)
T1 construct: gene Ace

HuBChE = target: T2, HuBChE (Homo sapiens, UniProt P06276); experiment: as above; format: biochemical; details: read-out: HuBChE (BTCh)
T2 construct: gene BCHE; native human enzyme, commercial (Sigma Chemical Co.)

With `CCN(CC)C(=O)c1cccc(C)c1` [deet, N,N-Diethyl-3-methylbenzamide] the Ki (DmAChE) was 1020 ± 30 µM and the Ki (HuBChE) was 370 ± 50 µM.

Reference: article PMC2739159, “Evidence for inhibition of cholinesterases in insect and mammalian nervous systems by the insect repellent deet” (BMC Biology, 2009)
